Reference: patent publication US20250262279A1, “DOSE REGIMEN FOR LONG-ACTING GLP1/GLUCAGON RECEPTOR AGONISTS” (Boehringer Ingelheim International GmbH, priority 2021, published 2025)

Assay: Example 3: safety (AEs, laboratory, ECG, vital signs, NASH scores)
Assay type: in vivo, human
Experimental: • Semaglutide • Dose: 0.25, 0.25, 0.25, 0.25, 0.5, 0.5, 0.5, 0.5, 1.0 mg (weeks 9−16) once weekly • Mode of administration: Solution for injection
Safety endpoints included Columbia-Suicide Severity Rating Scale (C-SSRS) and various electrocardiograms (ECG) assessments. Safety was assessed based on adverse events (AEs), adverse event of special interest (AESIs), clinical laboratory assessments, vital signs, and physical examination. AESIs were pre-specified in the protocol as pancreatitis and hepatic injury.
Analyses of safety were descriptive.

Question: With CC[C@H](C)[C@H](NC(=O)[C@H](Cc1ccccc1)NC(=O)[C@H](CCC(=O)O)NC(=O)[C@H](CCCCNC(=O)COCCOCCNC(=O)COCCOCCNC(=O)CC[C@H](NC(=O)CCCCCCCCCCCCCCCCC(=O)O)C(=O)O)NC(=O)[C@H](C)NC(=O)[C@H](C)NC(=O)[C@H](CCC(N)=O)NC(=O)CNC(=O)[C@H](CCC(=O)O)NC(=O)[C@H](CC(C)C)NC(=O)[C@H](Cc1ccc(O)cc1)NC(=O)[C@H](CO)NC(=O)[C@H](CO)NC(=O)[C@@H](NC(=O)[C@H](CC(=O)O)NC(=O)[C@H](CO)NC(=O)[C@@H](NC(=O)[C@H](Cc1ccccc1)NC(=O)[C@@H](NC(=O)CNC(=O)[C@H](CCC(=O)O)NC(=O)C(C)(C)NC(=O)[C@@H](N)Cc1cnc[nH]1)[C@@H](C)O)[C@@H](C)O)C(C)C)C(=O)N[C@@H](C)C(=O)N[C@@H](Cc1c[nH]c2ccccc12)C(=O)N[C@@H](CC(C)C)C(=O)N[C@H](C(=O)N[C@@H](CCCNC(=N)N)C(=O)NCC(=O)N[C@@H](CCCNC(=N)N)C(=O)NCC(=O)O)C(C)C [semaglutide, reference compound] as the molecule, how does the deaths (Ex.3, whole trial) read?
Answer: no deaths

Question: And the “AEs leading to discontinuation of trial medication, number of patients” value (in vivo)?
Answer: 2 N

Question: And the “AEs leading to discontinuation of trial medication, percentage of patients” value (in vivo)?
Answer: (4.0) %

Question: What about the “AEs of special interest, number of patients” value (in vivo) of the same molecule?
Answer: 0 N

Question: What about the “Any AE, number of patients” value (in vivo) of the same molecule?
Answer: 26 N

Question: What about the “Any AE, percentage of patients” value (in vivo) of the same molecule?
Answer: (52.0) %

Question: What about the “Investigator defined drug-related AEs, number of patients” value (in vivo) of the same molecule?
Answer: 19 N

Question: What about the “Investigator defined drug-related AEs, percentage of patients” value (in vivo) of the same molecule?
Answer: (38.0) %

Question: And the “Serious AEs, number of patients” value (in vivo)?
Answer: 0 N

Question: And the “Severe AEs, number of patients” value (in vivo)?
Answer: 0 N

Question: And the cases of pancreatitis (in vivo)?
Answer: no cases of pancreatitis

Question: And the “patients with SAEs” value (in vivo)?
Answer: 0 patients

Question: What about the “patients with SAEs assessed as drug-related by the investigator” value (in vivo) of the same molecule?
Answer: 0 patients

Question: And the “proportion of patients with PCSA high glucose on treatment” value (in vivo)?
Answer: 5.0%

Question: And the “severe AEs and serious AEs” value (in vivo)?
Answer: no severe AEs or serious AEs
